Source: patent US20110287948A1, “MEASUREMENT OF MATERIAL PROPERTIES AND RELATED METHODS AND COMPOSITIONS BASED ON CYTOADHERENCE” (Massachusetts Institute of Technology, priority 2010, published 2011)
“Also recorded” adds a separate entry of the source.

Experiments:
[1] = system: P. falciparum-infected RBCs (iRBCs) and co-cultured uninfected RBCs (uRBCs); assay: Microfluidic deformability cytometer: RBC mobility after artesunate drug treatment; format: cell-based, human; details: for separation resolution between iRBCs and uRBCs after drug treatment: after artesunate treatment vs untreated
From the text: The device used in this example comprises a series of equally spaced triangular pillar arrays with pore sizes ranging from 2.5 to 4 um (FIG. 55A illustrates the case of 3 um pore size). Compared to the diameter of an average RBC (˜7.5 um), the smaller pore sizes are designed to impose similar mechanical constraints on the cells as if they are passing through blood capillaries and splenic meshwork. Driven by constant pressure gradient in the sub-Pascal-per-micrometer range, RBCs are able to deform substantially at each constriction and traverse along the channel. The dynamic deformability of RBCs is then characterized by their mobility: the ability to deform repeatedly in order to pass through multiple constrictions in series.
FIG. 55A depicts an experimental schematic of the microfluidic system. A heating chamber (Olympus) was mounted to the inverted microscope stage. Four heaters for the inner water bath, microscope stage, chamber top, and lens were designed to accurately control the ambient temperature inside the chamber. The PDMS-glass bonded device consists of the inlet and outlet reservoirs and main channels with triangular pillar arrays. It was placed inside the heating chamber with only the inlet reservoir connecting to an external syringe via a 20 cm-tubing. The reservoirs were 500×500 μm^2 squares with 20 μm-interspacing cylindrical pillar arrays; these pillar arrays could pre-filter white blood cells from whole blood, allowing only RBCs to pass through the main channels. Each of the parallel channels was 10 pillars wide and 200 pillars long. Along the flow direction, the inter-pillar spacing was 10 μm. This spacing allows deformed cells to recover and ready for subsequent deformations. Perpendicular to the flow direction, the pore size varied from 2.5 to 4 μm for different channels. Cells experience different levels of deformation when passing through these pores.
FIG. 55B presents microscopic screenshots illustrating both iRBCs and co-cultured uRBCs moving in the microchannel at different temperature conditions. The uninfected cells appear as dark shadows indicated by blue arrows, and the infected cells with thiazole orange (TO) staining appear as bright dots indicated by white arrows. The mobility of individual cells can then be derived by recording the time period for each cell passing through 10 constrictions in series (i.e. equivalent to 200 μm distance travelled). In this example, cell mobility is used to characterize the dynamic deformability of individual RBCs.
The deformability of both iRBCs and uRBCs were measured at 2, 4 and 6 hours after artesunate drug treatment (FIG. 60). A synchronized culture of rings with ˜15% parasitemia was resuspended at 0.1% hematocrit in malaria culture medium containing 0.01, 0.05 or 0.1 μg/ml of artesunate.
Layout program CleWin3.0 was used to design the microfluidic device, which consists of a 500×500 μm^2 inlet reservoir, a 500×500 μm^2 outlet reservoir, and parallel capillary channels with triangular pillar arrays (FIG. 55A). Three different pore-size of 2.5, 3.0 and 4.0 μm were designed for the capillary channels to test optimum deformation condition for the experiment. A silicon mold of the device was made using standard silicon processing techniques. The photolithography step was done using a 5× reduction step-and-repeat projection stepper (Nikon NSR2005i9, Nikon Prevision) and reactive-ion etching (RIE) techniques were used to give the mold a final depth of 4.2 μm. Final device was then casted from the silicon mold using polydimethylsiloxane (PDMS) and was sealed by a glass slide using oxygen plasma.
P. falciparum 3D7A parasites (from Malaria Research and Reference Reagent Source, American Type Culture Collection) were cultured in leukocyte-free human RBCs (Research Blood Components, Brighton Mass.) in RPMI 1640 complete medium as described (Trager and Jensen J. parasitol. 2005). […]

RBCs = assay: Deformability cytometer: velocity of glutaraldehyde-treated RBCs through constrictions; format: cell-based, human
From the text: The device design includes periodically spaced, triangle-shaped pillars and the gaps between these pillars result in well-controlled constrictions for RBCs to pass. The height of the device was set to 4.2 μm. RBCs were forced to assume a flat orientation before entering each constriction. This height, in addition to filters at the reservoirs, prevented white blood cells from entering the device, and permitted diluted whole blood to be used directly.
A mold of the device was made on a silicon wafer using photolithography and reactive-ion etching techniques. A 5× reduction step-and-repeat projection stepper (Nikon NSR2005i9, Nikon Precision) was used for patterning. The spacing between pillars was 3 μm, and the depth of the device was 4.2 μm. The device was made using standard PDMS casting protocols and bonded to a glass slide.
In experiments involving blood, 1 μl of whole blood (−50% hematocrit) was diluted in 100 μl of the PBS-pluronic-BSA solution for all of the experiments. In experiments involving parasites that express GFP, no further treatment was performed. In experiments involving healthy RBCs, 1 μl of whole blood (Research Blood Components, Brighton, Mass.), 1 μl of 50 μg/ml of Cell Tracker Orange (Invitrogen, Carlsbad, Calif.), and 98 μl of PBS were mixed with the indicated concentration of glutaraldehyde and allowed to sit for 30 minutes. The sample was then washed 3 times with the PBS-Pluronic-BSA solution. In experiments involving reticulocytes, 1 μl of whole blood, 89 μl of the PBS-Pluronic-BSA solution, and 10 μl of 1×10^−6M thiazole orange were mixed and allowed to sit for 20 minutes before starting experiments. Videos were obtained in which reticulocytes appear as uniformly fluorescent cells under the GFP filter set, while mature RBCs appear as shadows.
The PBS-Pluronic-BSA solution was pumped through the device for 30 minutes to coat the device walls with Pluronic and BSA. The RBC-PBS-Pluronic-BSA suspension was then injected into the device. Differences in pressure between the two reservoirs were generated hydrostatically by a difference in water column height. […]

Row | SMILES | mobility decrease at earlier time points ([1]; 2 and 4 hours after artesunate treatment) | mobility decrease ([1]; 6 hours after artesunate treatment, 0.01, 0.05 or 0.1 μg/ml, iRBCs and uRBCs) | dose dependence of mobility changes ([1]; after 4 hour drug treatment, dosage range 0.01 to 0.1 μg/ml) | separation resolution between iRBCs and uRBCs after drug treatment [1] | separation resolution between iRBCs and uRBCs after drug treatment ([1]; listed as Artesunate) | effect on RBC deformability (stiffening) ([1]; iRBCs and uRBCs after artesunate treatment) | passage of RBCs into the channel (RBCs; glutaraldehyde concentrations greater than 0.003%) | RBCs that passed through the channels (RBCs; glutaraldehyde less than 0.002%, treatment for 30 minutes) | RBC stiffness / velocity with increasing concentration (RBCs; increasing glutaraldehyde concentration, 30 minutes, approx. 0.61 Pa/μm)
1 | C[C@H]1[C@H](OC(=O)CCC(=O)O)O[C@@H]2O[C@@]3(C)CC[C@H]4[C@H](C)CC[C@@H]1[C@@]24OO3 [artesunate] | smaller and less pronounced mobility decrease | 30%-50 | no statistically significant dose dependence | almost doubled | doubled | stiffening effect on both iRBCs and uRBCs; also recorded: the drop in iRBC deformability is more precipitous than in uRBC |  |  | 
2 | O=CCCCC=O [glutaraldehyde] |  |  |  |  |  |  | most RBCs were held up at the entrance to the channel, unable to deform | more than 95% | progressively stiffer with decreasing velocity
